Experimental data taken from US12071469B2, “Peptide compounds for suppressing inflammation” (Duke University, priority 2011, dated 2024).
“Also recorded” adds a separate entry of the source.

How the values were obtained:
[1] = test system: primary rat neuronal cortical culture exposed to NMDA; experiment: Neuroprotection from NMDA mediated cell death in primary neuronal culture (LDH release); format: cell-based
Protocol: Peptides of 5 amino acids in length were applied to one or more samples of cells in parallel at concentrations ranging from about 0 to about 50 μM, such as 0.3, 3, and 30 μM. The peptides AL-10-1 (SEQ ID NO:18) and VL-17-9 (SEQ ID NO:19), which are longer peptides (12 amino acids each) were used as negative and positive controls, respectively. A series of peptides were screened in primary rat neuronal cortical culture exposed to NMDA using the method described in Aono et al., Neuroscience (2003) 116:437 and Aono et al., Neurobiology of Disease (2002) 11:214, both of which are incorporated by reference in their entirety (see Table 2). Neuroprotection from NMDA mediated cell death in primary neuronal culture was expressed as percentage decrease in LDH, 24 hours after exposure to NMDA compared to vehicle treated cultures (Table 2). LDH release is indicative of neuronal death after NMDA exposure. The peptide VR-55 (SEQ ID NO:4) reduced NMDA mediated excitotoxic cell death by approximately 19% at a concentration of 1 μM. […] The positive control peptide VL-17-9 reduced LDH release by 31%.
Dose response of the neuroprotection from NMDA excitotoxicity in primary neuronal culture was determined for ApoE mimetic peptide VR-55 (SEQ ID NO: 4). […] “0” indicates less than 5% suppression; “+” indicates 5-10% suppression; “++” indicates 11-20% suppression; and “+++” indicates greater than 20% suppression. In addition to VL-17-9, several other candidates had greater than 20% suppression, including VR-55, VL-5-1, VL-5-2 and VR-52.

mice with blast injury = experiment: Morris water maze after blast injury (shock tube blast model); format: in vivo, mouse
Protocol: Another experimental procedure for measuring neurological deficits was developed using a Morris water maze. The procedure used a black aluminum pool containing a movable platform (7.5 cm diameter) and filled with 25-27° C. water opacified with powdered milk. Each training or testing session consisted of four trials per day with an interval of 20-30 minutes between trials. One day before testing, mice were trained using a visible platform (platform flagged and located in a different quadrant each trial to minimize quadrant habituation, no extra-maze visual cues) to habituate the mice to handling and swimming and to teach the mice the goal of the test-escaping the water by climbing on the platform. […] Latency to finding the platform and swimming speed were recorded using a computerized video tracking system (Ethovision 2.2.14; available from Noldus Information Technology, Leesburg VA). […]
The shock tube was mounted vertically on an extruded aluminum frame using three vibration-damping U-bolts. […] Peak incident overpressure, positive-phase duration, and peak incident impulse were recorded in the three end-tube PTs for each test (data not shown). […] Atmospheric conditions (temperature, barometric pressure, humidity) were recorded prior to each test. […]

[2] = test system: mixed glial primary culture; experiment: Suppression of TNF-α release in mixed glial primary culture after exposure to LPS; format: cell-based, murine; conditions: FIGS. 11A and 11B
Protocol: In vitro methods have been developed using cultured cells for evaluating the ability of a compound, such as a peptide, to suppress glial activation. Laskowitz et al., (2001) Exp. Neurol., 167:74-85. Glial cell cultures were grown and maintained under standard conditions. Cultured glial cells may include primary murine mixed glial cell cultures, murine BV-2 microglial cells, and human C3 microglial cells. Adherent glial cells were washed with OptiMEM® medium (available from Invitrogen Corp.) to remove serum and covered with fresh OptiMEM® medium containing peptide.
Larger peptides or proteins may need to be tested at higher concentrations to observe measurable suppression of glial activation. If using primary murine cells and BV-2 cells, cells are stimulated with 100 ng/ml E. coli LPS (available from Sigma-Aldrich Co.), and supernatant is collected six hours after LPS stimulation and assayed for nitrite (using a colorimetric Griess reagent system, available from Promega Corp.) and/or TNF-α (using a solid-phase ELISA kit, available from Invitrogen Corp.). If using human C3 cells, cells are stimulated with 200 μg/ml polyinosinic acid 5′ (available from Sigma-Aldrich Co.), and supernatant is collected 5 days after stimulation and assayed for TNF-α using a solid-phase ELISA kit (available from Invitrogen Corp.).
The protective activity against brain injury-downregulating CNS inflammatory response was determined for ApoE mimetic peptides, VR-55 (SEQ ID NO: 4), VL-5-1 (SEQ ID NO: 5) and VL-5-3 (SEQ ID NO: 10).

Ac-VSRRR-NH2 [VR-55, Ac-VSRRR-NH2]
dose response of percent suppression of LDH release after NMDA exposure ([1]; FIG. 6): dose dependent | percentage decrease in LDH, 24 hours after exposure to NMDA compared to vehicle treated cultures ([1]; peptide 0.1 μM): −2.85% | percentage decrease in LDH, 24 hours after exposure to NMDA compared to vehicle treated cultures ([1]; peptide 0.3 μM): 1.50% | suppression of LDH release, cumulative data (class) ([1]; peptide 1 μM, cumulative data): +++ (greater than 20% suppression) | percentage decrease in LDH, 24 hours after exposure to NMDA compared to vehicle treated cultures ([1]; peptide 3 μM): 15.91% | neurocognitive deficit after blast injury (Morris water maze) (mice with blast injury; FIG. 8, groups of 15): reduces neurocognitive deficit after blast injury | time in the correct quadrant (probe trial) (mice with blast injury; blast injury, vehicle 17.8±1.9 seconds, p=0.24): 21.8 ± 2.7 s | release of inflammatory cytokine TNF-α [2]: inhibition of microglial TNF-α secretion; also recorded: suppress the release of inflammatory cytokine TNF-α
